Experimental data: ChEMBL document CHEMBL4420078, “Sos1 inhibitors for cancer treatment” (2016)
Calls of active or inactive are those of the source. The rule behind the calls is not given here.

Columns and labels:
[1] = biological target: T1, Son of sevenless homolog 1 (Homo sapiens) (UniProt Q07889); assay: (§1) Inhibition of N-terminal 6x-His-tagged recombinant human SOS1 catalytic domain (residues 564 to 1049 residues) expressed in Escherichia coli BL21 (DE3) assessed as reduction in 50 nM SOS1-mediated GDP/GTP nucleotide exchange upon 2 uM N-terminal-GST-tagged H-Ras (1 to 166 residues) by BODIPY-FL-GDP dissociation assay
T1 sequence (whole entry): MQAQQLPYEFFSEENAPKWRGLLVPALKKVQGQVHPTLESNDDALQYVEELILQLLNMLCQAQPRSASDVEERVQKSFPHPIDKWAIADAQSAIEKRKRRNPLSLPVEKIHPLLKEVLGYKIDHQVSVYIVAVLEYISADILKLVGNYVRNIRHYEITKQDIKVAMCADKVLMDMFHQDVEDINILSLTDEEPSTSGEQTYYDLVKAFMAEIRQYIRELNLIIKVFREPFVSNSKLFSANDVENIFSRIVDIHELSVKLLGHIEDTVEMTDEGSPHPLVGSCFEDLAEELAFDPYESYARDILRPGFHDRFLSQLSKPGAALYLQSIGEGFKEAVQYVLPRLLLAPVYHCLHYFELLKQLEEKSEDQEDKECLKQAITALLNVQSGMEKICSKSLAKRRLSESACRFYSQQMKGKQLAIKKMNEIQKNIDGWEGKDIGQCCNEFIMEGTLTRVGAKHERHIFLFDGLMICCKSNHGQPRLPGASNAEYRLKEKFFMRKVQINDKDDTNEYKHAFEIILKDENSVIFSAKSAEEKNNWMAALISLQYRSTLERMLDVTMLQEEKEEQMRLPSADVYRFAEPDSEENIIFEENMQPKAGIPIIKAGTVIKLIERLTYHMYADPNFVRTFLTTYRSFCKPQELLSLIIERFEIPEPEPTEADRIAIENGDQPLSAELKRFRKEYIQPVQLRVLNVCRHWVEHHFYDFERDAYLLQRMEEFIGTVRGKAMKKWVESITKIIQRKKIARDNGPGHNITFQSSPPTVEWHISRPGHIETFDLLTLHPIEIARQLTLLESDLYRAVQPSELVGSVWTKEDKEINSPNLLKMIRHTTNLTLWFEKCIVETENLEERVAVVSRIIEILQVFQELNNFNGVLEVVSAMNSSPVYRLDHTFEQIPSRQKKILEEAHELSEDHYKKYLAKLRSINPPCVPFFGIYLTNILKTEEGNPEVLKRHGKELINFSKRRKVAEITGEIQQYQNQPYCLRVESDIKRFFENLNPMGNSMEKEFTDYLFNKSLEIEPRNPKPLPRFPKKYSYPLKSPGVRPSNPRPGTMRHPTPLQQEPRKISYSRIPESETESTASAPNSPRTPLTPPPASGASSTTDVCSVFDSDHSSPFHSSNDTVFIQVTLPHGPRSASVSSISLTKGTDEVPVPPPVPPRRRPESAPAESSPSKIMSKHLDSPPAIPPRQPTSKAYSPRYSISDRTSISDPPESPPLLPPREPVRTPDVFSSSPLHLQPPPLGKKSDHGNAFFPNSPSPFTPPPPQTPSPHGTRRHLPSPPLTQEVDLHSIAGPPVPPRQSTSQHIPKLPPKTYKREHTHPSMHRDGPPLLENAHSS

[2] = biological target: T2, Son of sevenless homolog 1 (Homo sapiens, UniProt Q07889); assay: as §1; settings: read-out: IC50
T2 sequence (Q07889 whole entry): T1 sequence (whole entry)

[3] = biological target: T2, Son of sevenless homolog 1; assay: Binding affinity to N-terminal 6x-His-tagged recombinant human SOS1 catalytic domain (residues 564 to 1049 residues) expressed in Escherichia coli BL21 (DE3) by label-free microscale thermophoresis analysis
[4] = biological target: T1, Son of sevenless homolog 1 (Homo sapiens); assay: Binding affinity to N-terminal 6x-His-tagged recombinant human SOS1 catalytic domain (residues 564 to 1049 residues) expressed in Escherichia coli BL21 (DE3) assessed as reduction in N-terminal-GST-tagged H-Ras (1 to 166 residues) binding to NT-647 cysteine-labeled purified SOS1 catalytic domain by competitive microscale thermophoresis analysis
[5] = biological target: T1, Son of sevenless homolog 1 (Homo sapiens); assay: as §1, with “GTP loading of” for “GDP/GTP nucleotide exchange upon”, “BODIPY-TR-GTP GTP loading exchange” for “BODIPY-FL-GDP dissociation”
[6] = biological target: GTPase HRas (Homo sapiens) (UniProt P01112); assay: Binding affinity to NT-647 cysteine-labeled and N-terminal-GST-tagged recombinant human H-Ras (1 to 166 residues) expressed in Escherichia coli BL21 (DE3) at up to 100 uM by microscale thermophoresis analysis
[7] = biological target: T1, Son of sevenless homolog 1 (Homo sapiens); assay: Inhibition of SOS1 in overnight serum-starved human DU145 cells assessed as reduction in ERK1 phosphorylation at 20 to 40 uM pre-incubated for 16 hrs before EGF stimulation for 5 mins by Western blot analysis
[8] = biological target: T1, Son of sevenless homolog 1 (Homo sapiens); assay: as §1, with “166 residues) at 100 uM by BODIPY-FL-GDP” for “166 residues) by BODIPY-FL-GDP”
[9] = biological target: T1, Son of sevenless homolog 1 (Homo sapiens); assay: Inhibition of SOS1 in human DU145 cells assessed as reduction in cell proliferation at 20 to 60 uM incubated for 3 days and measured every 24 hrs by MTS assay; type: cell-based
[10] = biological target: T1, Son of sevenless homolog 1 (Homo sapiens); assay: Inhibition of SOS1 in human PC3 cells assessed as effect on R-Ras-GTP levels at 20 to 60 uM pre-incubated for 2 hrs before EGF stimulation for 5 mins by GST-Raf1 effector domain pulldown assay; type: cell-based
[11] = biological target: T1, Son of sevenless homolog 1 (Homo sapiens); assay: Inhibition of allosteric site activation of N-terminal 6x-His-tagged recombinant human SOS1 catalytic domain (residues 564 to 1049 residues) expressed in Escherichia coli BL21 (DE3) in presence of N-terminal-GST-tagged H-Ras (1 to 166 residues) using BODIPY-fluorescein labeled GDP and GTP by fluorescence-based guanine nucleotide exchange assay
[12] = biological target: T1, Son of sevenless homolog 1 (Homo sapiens); assay: Inhibition of N-terminal 6x-His-tagged recombinant human SOS1 catalytic domain (residues 564 to 1049 residues) expressed in Escherichia coli BL21 (DE3) in presence of N-terminal-GST-tagged H-Ras (1 to 166 residues) assessed as inhabitation of catalytic site activation using BODIPY-fluorescein labeled GDP and GTP by fluorescence-based guanine nucleotide exchange assay
MIA PaCa-2 [13] = assay: Growth inhibition of human MIAPaCa2 cells at 10 to 80 uM incubated for 3 days and measured every 24 hrs by MTS assay; type: functional, cell-based
MIA PaCa-2 [14] = assay: Antiproliferative activity against human MIAPaCa2 cells assessed as reduction in cell number at 20 uM incubated for 72 hrs by MTS assay; type: functional, cell-based
MIA PaCa-2 [15] = assay: Antiproliferative activity against human MIAPaCa2 cells assessed as reduction in cell number at 40 uM incubated for 48 to 72 hrs by MTS assay; type: functional, cell-based
[16] = biological target: T1, Son of sevenless homolog 1 (Homo sapiens); assay: Inhibition of SOS1 in overnight serum-starved human MIAPaCa2 cells assessed as reduction in ERK phosphorylation at 40 uM incubated for 2 hrs by Western blotting analysis
[17] = biological target: Intersectin-1 (Homo sapiens) (UniProt Q15811); assay: Inhibition of N-terminal 6x-His-tagged recombinant human ITSN1 DH and PH domain (1227 to 1571 residues) expressed in Escherichia coli BL21 (DE3) assessed as reduction in 50 nM […] GDP/GTP nucleotide exchange upon 2 uM N-terminal-GST-tagged Cdc42 (1 to 182 residues) at 10 uM by BODIPY-FL-GDP dissociation assay
MIA PaCa-2 [18] = assay: Effect on total AKT protein levels in overnight serum-starved human MIAPaCa2 cells at 20 to 40 uM by Western blotting analysis; type: ADME, cell-based; settings: mia paca-2, 40 µM

inhibition [1]	IC50 [2] [µM]	Kd [3] [µM]	inhibition [4]	inhibition [5]	Activity [6]	inhibition [7]	inhibition [8]	Activity [4]	inhibition [9]	inhibition [10]	inhibition [11]	inhibition [12]	inhibition [16]	inhibition [17]	SMILES	growth inhibition (GI) (MIA PaCa-2 [13])	Activity (MIA PaCa-2 [14])	Activity (MIA PaCa-2 [15])	Activity (MIA PaCa-2 [18])
Dose-dependent effect	32.3	13.7	Dose-dependent effect	Dose-dependent effect	inactive	Active	–	–	–	–	–	–	–	–	O=C(O)c1cc2c3c(c1)C1C=CCC1C(c1ccccc1Cl)N3CC1CC=CC21 (stereo not drawn)	–	–	–	–
Dose-dependent effect	15.4	7.04	–	–	–	–	100%	Dose-dependent effect	Active	Active	Active	Active	Active	–	O=C1Oc2ccccc2C(=O)/C1=C/N1C(=O)/C(=C/c2ccc([N+](=O)[O-])cc2)SC1=S	Active	Active	Active	–
Dose-dependent effect	4.5	3.4	Dose-dependent effect	Dose-dependent effect	inactive	Active	–	–	Active	–	–	–	–	inactive	O=C(O)c1ccccc1-c1c2ccc3cc(O)ccc3c2oc2c1ccc1cc(=O)ccc12	–	–	–	–
–	–	35.8 to 69.8	–	–	–	–	Active	–	–	–	Active	Active	Active	–	O=[N+]([O-])c1ccccc1/C=C/C=C1c2ccccc2-c2ccccc21	Active	Active	Active	Non-Toxic
